In US7629310B2, “RhoB as a suppressor of cancer cell growth, cell transformation, and metastasis” (University of South Florida, priority 2000, dated 2009):
“And” between values parts separate entries of the source, which are not always exact repeats. Identical values can stand only once.

How the values were obtained:
A-549 cells = test: Focus/colony formation of A-549 cells in G418 medium; assay type: cell-based, human; settings: transfected A-549 cells, 3 weeks
Experimental: Focus Formation Assay. NIH3T3 cells were seeded into 60-mm plates (1×10^6 cell/per plate) one day prior to gene transfection. […] Two days after transfection, the cells were seeded into 60-mm plates at a density of 2.5×10^3/per plate, and maintained in DMEM medium containing 1.5% CBS. The medium was changed every 3 days. 3-4 weeks later the cells were washed once with PBS and once with PBS/methanol (1:1), then washed with fresh anhydrous methanol and covered with crystal violet stain for 1 min at room temperature. Finally, the stain was displaced with water. The focus formation assay for A-549 cells was similarly performed as above except that following the transfection the cells were cultured in DMEM complete medium containing 400 μg/ml of geneticin (G418, […], Inc.). 3 weeks later, the cells were fixed with anhydrous methanol and stained with crystal violet; the plates were photographed. All the samples were performed in triplicate and a representative of 3 independent experiments was reported in the figure(s) and averages±standard deviation reported in the table.

H-Ras/NIH3T3 cells = test: Cell proliferation, H-Ras-transformed NIH3T3; assay type: cell-based; settings: H-Ras-transformed NIH3T3, 0-96 hours
Experimental: Cell Proliferation. Cells were collected and examined for cell number by trypan blue exclusion and hemocytometer counting under microscope at 0 h, 24 h, 48 h, 72 h and 96 h. All the samples were performed in triplicate and the averages of 3 independent experiments were reported.

NIH3T3 cells [1] = test: Anchorage-independent growth (soft agar) assay in NIH3T3 cells; assay type: cell-based; settings: 5 weeks
Experimental: Anchorage-independent Growth Assay. NIH3T3 cells were similarly transfected as above. The cells were trypsinized, and 2.5×10^3 cells were suspended in triplicate in top soft agar layer (DMEM complete medium containing 0.35% agar) and seeded into 60-mm plates pre-coated by a 3-mm layer of lower agar (DMEM complete medium containing 0.7% agar). The cells were fed every 5 days for 5-6 weeks and finally stained with MTT (SIGMA). All the experiments were performed in triplicate and a representative of 3 independent experiments was reported in the figure(s) and averages±standard deviation in the table.

B16-F10 melanoma cells = test: Melanoma metastasis assay (B16-F10 cells injected into tail vein); assay type: in vivo, mouse; settings: transfected B16-F10 cells, C57 black mice, after 3 weeks, pcDNA3 control 14.8±1.9
Experimental: (§1) Parental NIH3T3 cells (FIG. 10A) were transiently transfected with pcDNA3 vector, HRas61L, or Akt in the presence or absence of RhoA, RhoB, or pcDNA3 for 36 hours. The cells were then split and cultured in DMEM medium containing 2 μM 5-FU for another 48 hours. The cells were then examined for their susceptibility to 5-FU-induced apoptosis by Annexin V labeling and flow cytometry apoptosis assays as described in the Materials and Methods section. 36 hours after the transfection, a fraction of the cells from FIG. 10A were washed and re-suspended in serum-free medium and seeded into the pre-coated plates and examined for viability at different time points by Annex V and 7-AAD labeling, as shown in FIG. 10B. In FIG. 10B, the bars at each time point (0, 12, 24 hrs), left-to-right, correspond to PCD, H-Ras, AKT, RhoA, RhoB, Akt+RhoA, and Akt+RhoB, respectively. […]
Melanoma Metastasis Assay. pcDNA3, pcDNA-RhoB and pcDNA-RhoA were transfected into B16-F10 cells similarly as described above. The cells were harvested 20 hours post-transfection; 5×10^5 cells from each group were analyzed for transfection efficiency by Western Blotting; another 5×10^5 cells were injected into the tail veins of C57/B16 mice (6 wk, F). The mice were sacrificed at the indicated intervals and the nodules growing in the lungs were counted.

NIH3T3 cells [2] = test: Anoikis assay in transfected NIH3T3 cells; assay type: cell-based; settings: transfected NIH3T3, poly-HEMA plates, 12 or 24 hours, vs pcDNA3 (FIG. 10B)
Experimental: as §1, with “respectively. B16-F10 melanoma cells were transiently transfected with pcDNA3 vector, pcDNA-RhoA or pcDNA-RhoB; 20 hours later, the cells were examined for gene delivery by Western Blotting with anti-HA, as shown in FIG. 10C. 5×10^5 of the cells from FIG. 10A were injected into the tail veins of C57/B16 mice. The numbers of metastatic nodules per mouse lung represent an average±standard error from 5 mice per group.” for “respectively.”
Anoikis Assay. […] 24 hrs later the cellular viability was determined by trypan blue exclusion.

Row | Substance | number of colonies (A-549 cells) | growth rate (H-Ras/NIH3T3 cells) | # of soft agar colonies (NIH3T3 cells [1]; oncogene: H-Ras) | # of soft agar colonies (NIH3T3 cells [1]; oncogene: K-Ras) | # of soft agar colonies (NIH3T3 cells [1]; oncogene: N-Ras) | metastatic colonies per lung (B16-F10 melanoma cells) | cell death induced by lack of attachment (anoikis) (NIH3T3 cells [2])
1 | RhoA: closely related family member sharing 86% sequence identity with RhoB; wild-type, in HA-tagged pcDNA3, transfected as control | 593+/−43 | enhanced the rate of growth | 77 and 77 ± 12 | 65 and 65 ± 7 | 89 and 89 ± 14 | 13±4.5 | much lower rate of anoikis
2 | RhoB: low molecular weight GTPase; wild-type RhoB subcloned into HA-tagged pcDNA3 and ectopically expressed by transfection | 178+/−19 | inhibited the growth rate | 21 and 21 ± 3 | 18 and 18 ± 5 | 26 and 26 ± 7 | 2±0.7 | significantly higher cell death
